We go through 16 molecules from PubChem BioAssay (NCI).

Some test systems named below: HCT-15 colon; KM12 colon; M14 melanoma; MOLT-4 leukemia; NCI-H460 lung; SF-539 CNS; SNB-19 CNS; UACC-257 melanoma; PC-3 prostate; MCF7 breast.
Holding throughout (experiment): DTP human tumour cell line panel, 48 h

Structures are written as SMILES.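 Dose response: 5 concentrations. Exposure: 48 h. Format: 96-well plates. Endpoint: linear interpolation; highest concentration if not reached. The concentration for 50% growth inhibition is given as GI50. TGI: total growth inhibition.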

With `COC(=O)C1=CC(=O)C(C(=O)Nc2ccc(OC)cc2)C(c2ccccc2)O1` (configuration not stated), the TGI is over 100 µM in the test on HCT-15 colon; over 100 µM in the test on KM12 colon; 98.7 µM with M14 melanoma; over 100 µM in the test with MOLT-4 leukemia; over 100 µM in the test with NCI-H460 lung; 40.3 µM in the test with SF-539 CNS. Moreover, the TGI in the test with SNB-19 CNS is 42 µM; with UACC-257 melanoma it was over 100 µM.

For the molecule `O=c1[nH]nc(-c2ccccc2)c(-c2ccccc2)c1-n1nc(-c2ccccc2)c2ccccc2c1=O`, the TGI in the test with HCT-15 colon was over 100 µM; in the test with KM12 colon, over 100 µM; in the test with M14 melanoma it was over 100 µM; in the test with MOLT-4 leukemia, 88.7 µM; in the test with NCI-H460 lung, over 100 µM; in the test on SF-539 CNS, over 100 µM. The molecule also had a TGI in the test on UACC-257 melanoma of over 100 µM.

As for `[N-]=[N+]=Nc1ccc(S(=O)(=O)Oc2cc(OS(=O)(=O)c3ccc(N=[N+]=[N-])cc3)cc(OS(=O)(=O)c3ccc(N=[N+]=[N-])cc3)c2)cc1`, the TGI with HCT-15 colon, with KM12 colon, with M14 melanoma, in the test on MOLT-4 leukemia, in the test with NCI-H460 lung and in the test on SF-539 CNS was over 100 µM in each case. For the same molecule, the TGI with SNB-19 CNS was over 10 µM; with UACC-257 melanoma, over 100 µM.

As to `COC1CCC(=C2C(=O)OC(C)(C)OC2=O)N1` (configuration not stated), the TGI with HCT-15 colon, with KM12 colon, in the test with M14 melanoma, with MOLT-4 leukemia, in the test on NCI-H460 lung and in the test with SF-539 CNS was over 100 µM in each case. Also, the TGI with SNB-19 CNS and in the test on UACC-257 melanoma was over 100 µM each time.

With `C=C1C(=O)O[C@@H]2[C@@H]3O[C@@](C)(CC/C=C(\C)CCC[C@@H]2C)[C@H](O)C[C@@H]13`, the GI50 with HCT-15 colon is 1.64 µM; in the test with M14 melanoma, 1.72 µM; in the test on MOLT-4 leukemia, 2.75 µM; in the test on PC-3 prostate, 4.31 µM; in the test on SF-539 CNS, 2.7 µM; in the test on SNB-19 CNS it was 14.6 µM. Moreover, in the test on UACC-257 melanoma, the GI50 is 1.29 µM. Moreover, the TGI was determined as 4.53 µM with HCT-15 colon; 24.6 µM in the test on KM12 colon; 3.48 µM in the test on M14 melanoma; 7.64 µM in the test on MOLT-4 leukemia; 31.6 µM in the test with NCI-H460 lung; 18.3 µM in the test on PC-3 prostate. The TGI with SF-539 CNS was 8.9 µM; in the test on SNB-19 CNS, 28.6 µM; in the test with UACC-257 melanoma, 4.27 µM.

Regarding `COC(=O)C1Cc2c([nH]c3ccccc23)[C@H](CC(C)C)N1` (some centres not stated), the TGI in the test with KM12 colon, in the test with M14 melanoma, with MOLT-4 leukemia, with SF-539 CNS, in the test with SNB-19 CNS and with UACC-257 melanoma was over 100 µM in each case.

Turning to `CC(=O)OC1COC(N2C(=O)C(=O)c3c(C)cc(Cl)nc32)C(OC(C)=O)C1OC(C)=O` (configuration not stated), the TGI in the test on HCT-15 colon, in the test on KM12 colon, with M14 melanoma, in the test with MOLT-4 leukemia, in the test on NCI-H460 lung and in the test on SF-539 CNS was over 100 µM in each case. Moreover, the TGI in the test with SNB-19 CNS and in the test on UACC-257 melanoma was over 100 µM in each case.

Regarding `CC(=O)NNc1nc(C)c(C(/C=C/c2ccc(/C=C/C(=N\NC(=O)c3ccncc3)c3sc(NNC(C)=O)nc3C)cc2)=N/NC(=O)c2ccncc2)s1`, the concentration for total growth inhibition (TGI) with HCT-15 colon, in the test on KM12 colon, with M14 melanoma, in the test with MOLT-4 leukemia, in the test with NCI-H460 lung and with SF-539 CNS was over 100 µM throughout. Further, the TGI in the test on SNB-19 CNS and with UACC-257 melanoma was over 100 µM in each case.

For `CCCCNC(=S)Nn1c(-c2ccccc2)nc2ccccc2c1=O`, the TGI with HCT-15 colon, in the test with KM12 colon, in the test with M14 melanoma, in the test on MOLT-4 leukemia, in the test on NCI-H460 lung and in the test on SF-539 CNS was over 100 µM each time. Also, the TGI in the test with UACC-257 melanoma is over 100 µM.

As for `COc1ccc(CN(O)C2C(CO)OC(n3cc(I)c(=O)[nH]c3=O)C2O)cc1` (configuration not stated), the TGI with HCT-15 colon, in the test on KM12 colon, with M14 melanoma, in the test on MOLT-4 leukemia, in the test with NCI-H460 lung and in the test on SF-539 CNS was over 100 µM in each case. The TGI in the test on SNB-19 CNS and in the test with UACC-257 melanoma was over 100 µM throughout.

Take `CC(=O)Oc1c(-c2ccccc2)[nH]c2cc([N+](=O)[O-])c(/C(Cl)=C/c3ccccc3)cc12`: the TGI in the test with KM12 colon came to 16.3 µM; with M14 melanoma, 23.1 µM; with MOLT-4 leukemia, 13.8 µM; with NCI-H460 lung, 70.2 µM; in the test with SNB-19 CNS, 94.2 µM; in the test with UACC-257 melanoma, 27.7 µM.

For `C[N+](C)(C)CC(=O)N/N=C(/C=C/c1ccccc1)CC1OC(=O)c2ccccc21` (configuration not stated), the TGI in the test on HCT-15 colon, in the test on KM12 colon, in the test with M14 melanoma, in the test with MOLT-4 leukemia, in the test with NCI-H460 lung and in the test with SF-539 CNS was over 100 µM in each case. In addition, the TGI in the test with SNB-19 CNS and with UACC-257 melanoma was over 100 µM in each case.

Consider `COC(=O)C1=C(O)C(O)=C(C(=O)OC)CC1`, for which the TGI in the test with HCT-15 colon, in the test on KM12 colon, in the test on M14 melanoma, in the test with MOLT-4 leukemia, in the test with NCI-H460 lung and in the test with SF-539 CNS was over 100 µM each time. Further, the TGI in the test on SNB-19 CNS and in the test with UACC-257 melanoma was over 100 µM throughout.

In the case of `CC(C)c1ccc2c(c1)CCC1C(C)(C)[C@@H](O)CC[C@]21C` (some centres not stated), the TGI in the test on HCT-15 colon was over 100 µM; with KM12 colon, 71.5 µM; in the test with M14 melanoma, 72.4 µM; with MOLT-4 leukemia it was 89.9 µM; in the test with NCI-H460 lung, 41.4 µM; with SF-539 CNS, 65.1 µM. In addition, the TGI in the test on SNB-19 CNS was over 100 µM.

In the case of `COc1ccc(NC(=O)CC/C(CC(=O)c2ccco2)=N/Nc2ccc([N+](=O)[O-])cc2[N+](=O)[O-])cc1`, the TGI with HCT-15 colon was over 100 µM; in the test with KM12 colon, over 100 µM; with M14 melanoma, over 100 µM; in the test with MOLT-4 leukemia it was 97.3 µM; in the test on NCI-H460 lung, over 100 µM; in the test with SF-539 CNS, over 100 µM. The total growth inhibition concentration (TGI) with SNB-19 CNS and in the test with UACC-257 melanoma was over 100 µM in each case.

Regarding `CC/C(=C(\c1ccccc1)c1ccc(OCCN(C)C)cc1)c1ccccc1`, the GI50 is 2.01 µM in the test on HCT-15 colon; 2.55 µM with KM12 colon; 1.02 µM in the test on M14 melanoma; 1.12 µM in the test with MCF7 breast; 2.47 µM in the test on PC-3 prostate; 0.971 µM in the test with UACC-257 melanoma.

The TGI is the concentration giving total growth inhibition. The term GI50 denotes the concentration that inhibits growth by half.
